Columns and labels:
Assay in all cases: relative viability (nuclei count vs DMSO), 5 days (fraction); higher = more cells survive
Palbociclib + Trametinib = compound: CC(=O)c1c(C)c2cnc(Nc3ccc(N4CCNCC4)cn3)nc2n(C2CCCC2)c1=O [Palbociclib] + CC(=O)Nc1cccc(-n2c(=O)n(C3CC3)c(=O)c3c(Nc4ccc(I)cc4F)n(C)c(=O)c(C)c32)c1 [Trametinib] (partner 0.02 µM)
How it was run: (§1)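 Lung cancer cell lines in 1536-well plates got either a single drug or a fixed anchor-drug dose together with five library-drug doses (not always all listed) in √10 steps, by pin tool, on the day after seeding. Nuclei were counted after 5 days, and relative viability is the treated-to-vehicle ratio of nuclei counts. Values are medians of duplicate plates.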

Palbociclib + Navitoclax = compound: CC(=O)c1c(C)c2cnc(Nc3ccc(N4CCNCC4)cn3)nc2n(C2CCCC2)c1=O [Palbociclib] + CC1(C)CCC(c2ccc(Cl)cc2)=C(CN2CCN(c3ccc(C(=O)NS(=O)(=O)c4ccc(N[C@H](CCN5CCOCC5)CSc5ccccc5)c(S(=O)(=O)C(F)(F)F)c4)cc3)CC2)C1 [Navitoclax] (partner 0.5 µM)
How it was run: as §1

Palbociclib + Tozasertib = compound: CC(=O)c1c(C)c2cnc(Nc3ccc(N4CCNCC4)cn3)nc2n(C2CCCC2)c1=O [Palbociclib] + Cc1cc(Nc2cc(N3CCN(C)CC3)nc(Sc3ccc(NC(=O)C4CC4)cc3)n2)n[nH]1 [Tozasertib] (partner 0.1 µM)
How it was run: as §1

Palbociclib + Decitabine = compound: CC(=O)c1c(C)c2cnc(Nc3ccc(N4CCNCC4)cn3)nc2n(C2CCCC2)c1=O [Palbociclib] + Nc1ncn([C@H]2C[C@H](O)[C@@H](CO)O2)c(=O)n1 [Decitabine] (partner 2 µM)
How it was run: as §1

Cell Line: LXF-289
- relative viability (Palbociclib + Trametinib; first compound 0.01 µM): 0.662
- relative viability (Palbociclib + Trametinib; first compound 0.03162 µM): 0.633
- relative viability (Palbociclib + Trametinib; first compound 0.1 µM): 0.632
- relative viability (Palbociclib + Trametinib; first compound 0.3162 µM): 0.619
- relative viability (Palbociclib + Trametinib; first compound 1 µM): 0.605
- relative viability (Palbociclib + Navitoclax; first compound 0.01 µM): 0.94
- relative viability (Palbociclib + Navitoclax; first compound 0.03162 µM): 0.94
- relative viability (Palbociclib + Navitoclax; first compound 0.1 µM): 0.937
- relative viability (Palbociclib + Navitoclax; first compound 0.3162 µM): 0.83
- relative viability (Palbociclib + Navitoclax; first compound 1 µM): 0.772
- relative viability (Palbociclib + Tozasertib; first compound 0.01 µM): 0.175
- relative viability (Palbociclib + Tozasertib; first compound 0.03162 µM): 0.2
- relative viability (Palbociclib + Tozasertib; first compound 0.1 µM): 0.19
- relative viability (Palbociclib + Tozasertib; first compound 0.3162 µM): 0.233
- relative viability (Palbociclib + Tozasertib; first compound 1 µM): 0.248
- relative viability (Palbociclib + Decitabine; first compound 0.01 µM): 0.367
- relative viability (Palbociclib + Decitabine; first compound 0.03162 µM): 0.405
- relative viability (Palbociclib + Decitabine; first compound 0.1 µM): 0.411
- relative viability (Palbociclib + Decitabine; first compound 0.3162 µM): 0.363
- relative viability (Palbociclib + Decitabine; first compound 1 µM): 0.422

Cell Line: NCI-H23
- relative viability (Palbociclib + Trametinib; first compound 0.01 µM): 0.447
- relative viability (Palbociclib + Trametinib; first compound 0.03162 µM): 0.295
- relative viability (Palbociclib + Trametinib; first compound 0.1 µM): 0.42
- relative viability (Palbociclib + Trametinib; first compound 0.3162 µM): 0.39
- relative viability (Palbociclib + Trametinib; first compound 1 µM): 0.289
- relative viability (Palbociclib + Navitoclax; first compound 0.01 µM): 1.13
- relative viability (Palbociclib + Navitoclax; first compound 0.1 µM): 0.79
- relative viability (Palbociclib + Navitoclax; first compound 0.3162 µM): 0.789
- relative viability (Palbociclib + Navitoclax; first compound 1 µM): 0.572
- relative viability (Palbociclib + Tozasertib; first compound 0.01 µM): 0.335
- relative viability (Palbociclib + Tozasertib; first compound 0.1 µM): 0.381
- relative viability (Palbociclib + Tozasertib; first compound 0.3162 µM): 0.378
- relative viability (Palbociclib + Tozasertib; first compound 1 µM): 0.412
- relative viability (Palbociclib + Decitabine; first compound 0.01 µM): 0.28
- relative viability (Palbociclib + Decitabine; first compound 0.03162 µM): 0.341
- relative viability (Palbociclib + Decitabine; first compound 0.1 µM): 0.283
- relative viability (Palbociclib + Decitabine; first compound 0.3162 µM): 0.362
- relative viability (Palbociclib + Decitabine; first compound 1 µM): 0.33

Cell Line: NCI-H358
- relative viability (Palbociclib + Trametinib; first compound 0.01 µM): 0.124
- relative viability (Palbociclib + Trametinib; first compound 0.03162 µM): 0.133
- relative viability (Palbociclib + Trametinib; first compound 0.1 µM): 0.106
- relative viability (Palbociclib + Trametinib; first compound 0.3162 µM): 0.12
- relative viability (Palbociclib + Trametinib; first compound 1 µM): 0.106
- relative viability (Palbociclib + Tozasertib; first compound 0.01 µM): 0.0961
- relative viability (Palbociclib + Tozasertib; first compound 0.03162 µM): 0.087
- relative viability (Palbociclib + Tozasertib; first compound 0.1 µM): 0.096
- relative viability (Palbociclib + Tozasertib; first compound 0.3162 µM): 0.0791
- relative viability (Palbociclib + Tozasertib; first compound 1 µM): 0.0679
- relative viability (Palbociclib + Decitabine; first compound 0.01 µM): 0.209
- relative viability (Palbociclib + Decitabine; first compound 0.03162 µM): 0.203
- relative viability (Palbociclib + Decitabine; first compound 0.1 µM): 0.206
- relative viability (Palbociclib + Decitabine; first compound 0.3162 µM): 0.186
- relative viability (Palbociclib + Decitabine; first compound 1 µM): 0.143

Cell Line: NCI-H522
- relative viability (Palbociclib + Trametinib; first compound 0.01 µM): 0.818
- relative viability (Palbociclib + Trametinib; first compound 0.03162 µM): 0.576
- relative viability (Palbociclib + Trametinib; first compound 0.1 µM): 0.776
- relative viability (Palbociclib + Trametinib; first compound 0.3162 µM): 0.797
- relative viability (Palbociclib + Trametinib; first compound 1 µM): 0.853
- relative viability (Palbociclib + Tozasertib; first compound 0.01 µM): 0.604
- relative viability (Palbociclib + Tozasertib; first compound 0.03162 µM): 0.517
- relative viability (Palbociclib + Tozasertib; first compound 0.1 µM): 0.573
- relative viability (Palbociclib + Tozasertib; first compound 0.3162 µM): 0.469
- relative viability (Palbociclib + Tozasertib; first compound 1 µM): 0.539
- relative viability (Palbociclib + Decitabine; first compound 0.01 µM): 0.749
- relative viability (Palbociclib + Decitabine; first compound 0.03162 µM): 0.646
- relative viability (Palbociclib + Decitabine; first compound 0.1 µM): 0.635
- relative viability (Palbociclib + Decitabine; first compound 0.3162 µM): 0.736
- relative viability (Palbociclib + Decitabine; first compound 1 µM): 0.709

Cell Line: NCI-H650
- relative viability (Palbociclib + Trametinib; first compound 0.01 µM): 1.02
- relative viability (Palbociclib + Trametinib; first compound 0.1 µM): 0.771
- relative viability (Palbociclib + Trametinib; first compound 0.3162 µM): 0.915
- relative viability (Palbociclib + Trametinib; first compound 1 µM): 0.792
- relative viability (Palbociclib + Tozasertib; first compound 0.01 µM): 0.784
- relative viability (Palbociclib + Tozasertib; first compound 0.03162 µM): 0.378
- relative viability (Palbociclib + Tozasertib; first compound 0.1 µM): 0.639
- relative viability (Palbociclib + Tozasertib; first compound 0.3162 µM): 0.588
- relative viability (Palbociclib + Tozasertib; first compound 1 µM): 0.576
- relative viability (Palbociclib + Decitabine; first compound 0.01 µM): 0.305
- relative viability (Palbociclib + Decitabine; first compound 0.1 µM): 0.31
- relative viability (Palbociclib + Decitabine; first compound 0.3162 µM): 0.306
- relative viability (Palbociclib + Decitabine; first compound 1 µM): 0.354

Cell Line: NCI-H661
- relative viability (Palbociclib + Trametinib; first compound 0.01 µM): 0.536
- relative viability (Palbociclib + Trametinib; first compound 0.03162 µM): 0.5
- relative viability (Palbociclib + Trametinib; first compound 0.1 µM): 0.423
- relative viability (Palbociclib + Trametinib; first compound 0.3162 µM): 0.477
- relative viability (Palbociclib + Trametinib; first compound 1 µM): 0.336
- relative viability (Palbociclib + Tozasertib; first compound 0.01 µM): 0.332
- relative viability (Palbociclib + Tozasertib; first compound 0.03162 µM): 0.346
- relative viability (Palbociclib + Tozasertib; first compound 0.1 µM): 0.324
- relative viability (Palbociclib + Tozasertib; first compound 0.3162 µM): 0.302
- relative viability (Palbociclib + Tozasertib; first compound 1 µM): 0.3
- relative viability (Palbociclib + Decitabine; first compound 0.01 µM): 0.547
- relative viability (Palbociclib + Decitabine; first compound 0.03162 µM): 0.484
- relative viability (Palbociclib + Decitabine; first compound 0.1 µM): 0.476
- relative viability (Palbociclib + Decitabine; first compound 0.3162 µM): 0.461
- relative viability (Palbociclib + Decitabine; first compound 1 µM): 0.39

Cell Line: NCI-H1299
- relative viability (Palbociclib + Navitoclax; first compound 0.01 µM): 1.09
- relative viability (Palbociclib + Navitoclax; first compound 0.03162 µM): 0.949
- relative viability (Palbociclib + Navitoclax; first compound 0.1 µM): 0.909
- relative viability (Palbociclib + Navitoclax; first compound 0.3162 µM): 0.846
- relative viability (Palbociclib + Navitoclax; first compound 1 µM): 0.715

Cell Line: NCI-H1703
- relative viability (Palbociclib + Navitoclax; first compound 0.01 µM): 1.18
- relative viability (Palbociclib + Navitoclax; first compound 0.03162 µM): 0.756
- relative viability (Palbociclib + Navitoclax; first compound 0.1 µM): 0.753
- relative viability (Palbociclib + Navitoclax; first compound 0.3162 µM): 0.394
- relative viability (Palbociclib + Navitoclax; first compound 1 µM): 0.28

Cell Line: NCI-H1792
- relative viability (Palbociclib + Trametinib; first compound 0.01 µM): 0.501
- relative viability (Palbociclib + Trametinib; first compound 0.03162 µM): 0.376
- relative viability (Palbociclib + Trametinib; first compound 0.1 µM): 0.323
- relative viability (Palbociclib + Trametinib; first compound 0.3162 µM): 0.338
- relative viability (Palbociclib + Trametinib; first compound 1 µM): 0.213
- relative viability (Palbociclib + Navitoclax; first compound 0.01 µM): 0.583
- relative viability (Palbociclib + Navitoclax; first compound 0.03162 µM): 0.537
- relative viability (Palbociclib + Navitoclax; first compound 0.1 µM): 0.592
- relative viability (Palbociclib + Navitoclax; first compound 0.3162 µM): 0.461
- relative viability (Palbociclib + Navitoclax; first compound 1 µM): 0.321
- relative viability (Palbociclib + Decitabine; first compound 0.01 µM): 0.567
- relative viability (Palbociclib + Decitabine; first compound 0.03162 µM): 0.432
- relative viability (Palbociclib + Decitabine; first compound 0.1 µM): 0.597
- relative viability (Palbociclib + Decitabine; first compound 0.3162 µM): 0.469
- relative viability (Palbociclib + Decitabine; first compound 1 µM): 0.389

Cell Line: NCI-H2228
- relative viability (Palbociclib + Trametinib; first compound 0.01 µM): 0.606
- relative viability (Palbociclib + Trametinib; first compound 0.03162 µM): 0.373
- relative viability (Palbociclib + Trametinib; first compound 0.1 µM): 0.494
- relative viability (Palbociclib + Trametinib; first compound 0.3162 µM): 0.522
- relative viability (Palbociclib + Trametinib; first compound 1 µM): 0.483
- relative viability (Palbociclib + Navitoclax; first compound 0.01 µM): 0.99
- relative viability (Palbociclib + Navitoclax; first compound 0.03162 µM): 1.01
- relative viability (Palbociclib + Navitoclax; first compound 0.1 µM): 0.729
- relative viability (Palbociclib + Navitoclax; first compound 0.3162 µM): 0.856
- relative viability (Palbociclib + Navitoclax; first compound 1 µM): 0.827
- relative viability (Palbociclib + Tozasertib; first compound 0.01 µM): 0.247
- relative viability (Palbociclib + Tozasertib; first compound 0.03162 µM): 0.235
- relative viability (Palbociclib + Tozasertib; first compound 0.1 µM): 0.247
- relative viability (Palbociclib + Tozasertib; first compound 0.3162 µM): 0.261
- relative viability (Palbociclib + Tozasertib; first compound 1 µM): 0.23

Cell Line: NCI-H2342
- relative viability (Palbociclib + Trametinib; first compound 0.01 µM): 1.09
- relative viability (Palbociclib + Trametinib; first compound 0.03162 µM): 0.825
- relative viability (Palbociclib + Trametinib; first compound 0.1 µM): 0.695
- relative viability (Palbociclib + Trametinib; first compound 0.3162 µM): 0.758
- relative viability (Palbociclib + Trametinib; first compound 1 µM): 0.669
- relative viability (Palbociclib + Tozasertib; first compound 0.01 µM): 0.556
- relative viability (Palbociclib + Tozasertib; first compound 0.03162 µM): 0.4
- relative viability (Palbociclib + Tozasertib; first compound 0.1 µM): 0.493
- relative viability (Palbociclib + Tozasertib; first compound 0.3162 µM): 0.544
- relative viability (Palbociclib + Tozasertib; first compound 1 µM): 0.409
- relative viability (Palbociclib + Decitabine; first compound 0.01 µM): 0.744
- relative viability (Palbociclib + Decitabine; first compound 0.03162 µM): 0.712
- relative viability (Palbociclib + Decitabine; first compound 0.1 µM): 0.602
- relative viability (Palbociclib + Decitabine; first compound 0.3162 µM): 0.713
- relative viability (Palbociclib + Decitabine; first compound 1 µM): 0.582

Cell Line: SW 900
- relative viability (Palbociclib + Trametinib; first compound 0.01 µM): 0.828
- relative viability (Palbociclib + Trametinib; first compound 0.1 µM): 1.12
- relative viability (Palbociclib + Trametinib; first compound 0.3162 µM): 0.616
- relative viability (Palbociclib + Trametinib; first compound 1 µM): 0.509
- relative viability (Palbociclib + Tozasertib; first compound 0.01 µM): 0.557
- relative viability (Palbociclib + Tozasertib; first compound 0.1 µM): 0.461
- relative viability (Palbociclib + Tozasertib; first compound 0.3162 µM): 0.417
- relative viability (Palbociclib + Tozasertib; first compound 1 µM): 0.506
- relative viability (Palbociclib + Decitabine; first compound 0.01 µM): 0.393
- relative viability (Palbociclib + Decitabine; first compound 0.1 µM): 0.475
- relative viability (Palbociclib + Decitabine; first compound 0.3162 µM): 0.478
- relative viability (Palbociclib + Decitabine; first compound 1 µM): 0.484
